Results reported in patent US20110098312A1, “METHODS FOR PREVENTING THE DEVELOPMENT OF RETINOPATHY BY THE ORAL ADMINISTRATION OF NNR LIGANDS” (Targacept ,Inc, priority 2008, published 2011).

How the values were obtained:
Pig primary RPE cells = experiment: Transepithelial resistance (TER) of RPE monolayers under oxidative stress (H2O2 and serum as source of complement); assay type: cell-based; conditions: for EC50: Sus scrofa, RPE, pretreatment 1 hour prior to stressors, tested at 5 nM-1 μM, read-out: ED50 (reduction of oxidative stress-mediated TER loss); for Mean Diff., Fisher's PLSD for 100 nM effect: treatment / Mean Diff., Fisher's PLSD for nicotine effect: treatment: Significance Level 5%; for Mean Diff., Fisher's PLSD for nicotine effect: treatment: dose response profiles; for dose-response profile of TER preservation: range 5 nM-1 μM; for effect of compound on TER on its own: test compound controls lack H2O2
Protocol: Pig primary RPE cells grown as stable monolayers were used for this set of experiments. RPE monolayers were treated with hydrogen peroxide (H2O2) and serum as a source of complement. This treatment is known to result in loss of transepithelial resistance (TER) in RPE cells that is dependent upon reactive oxygen species and superoxide production. […] Combined treatment of two stressors present in AMD (low oxidative stress and complement activation) results in TER loss; whereas each stressor alone has no effect. This loss in TER can be eliminated by pretreatment with superoxide dismutase (SOD) mimetic (MnTBAP). […] FIG. 4 is derived from the maximal effects observed in FIG. 3. […] The higher the resistance, the less injury to the cell. Note that “HI” is “heat inactivated.” Heat inactivates complement, a necessary component to cause injury to the RPE in the presence of peroxides. Pig primary RPE cells were harvested from pigs used for practice surgeries. Cultures were performed described by Ablonczy, Z. and C. E. Crosson, VEGF modulation of retinal pigment epithelium resistance. […] Chemicals. Compounds were tested at 5 nM-1 μM concentration. Compound A-E are as noted herein.

[1] = test system: Rat brain endothelial cell line gp8.3 cells; experiment: Alpha 7 ligand modulation of radiation-induced ROS generation; assay type: cell-based; conditions: 10 uM ligand for 1 h prior to single dose of 10 Gy; H2DCFDA; FIG. 2
[2] = pairwise comparison versus Compound B
[3] = pairwise comparison versus Compound D
[4] = pairwise comparison versus Compound C
[5] = pairwise comparison versus Compound A

SMILES | Mean Diff., Fisher's PLSD for 100 nM effect: treatment (Pig primary RPE cells; [2]) | Mean Diff., Fisher's PLSD for nicotine effect: treatment (Pig primary RPE cells; [2]) | Mean Diff., Fisher's PLSD for 100 nM effect: treatment (Pig primary RPE cells; [3]) | Mean Diff., Fisher's PLSD for nicotine effect: treatment (Pig primary RPE cells; [3]) | dose-response profile of TER preservation (Pig primary RPE cells; FIG. 4) | also measured
O=C(N[C@@H]1C2CCN(CC2)[C@H]1Cc1cccnc1)c1cc(F)cc(F)c1 [Compound C, N-((2S,3R)-2-((3-pyridinyl)methyl)-1-azabicyclo[2.2.2]oct-3-yl)-3,5-difluorobenzamide] | 2.066 | −2.035 | 10.098 | 5.144 | plateaued at or around the ED50 level | EC50 (Pig primary RPE cells; FIG. 4): < 50 nM; effect of compound on TER on its own (Pig primary RPE cells): reduced TER on their own
CN[C@@]1(C)[C@@H]2CC[C@@H](C2)C1(C)C [Compound A, exo-S-mecamylamine] | −14.209 | −16.538 | −6.177 | −9.359 | exhibited a dose-response profile over the entire range used | Mean Diff., Fisher's PLSD for 100 nM effect: treatment (Pig primary RPE cells; [4]): −16.276; Mean Diff., Fisher's PLSD for nicotine effect: treatment (Pig primary RPE cells; [4]): −14.503
c1cncc(C2CC3CCN2CC3)c1 (stereo not drawn) [Compound D] | −8.023 | −7.179 |  |  |  | 
CN1CCCC1c1cccnc1 (stereo not drawn) [nicotine, reference compound] |  |  |  |  |  | reduction of oxidative stress-mediated loss of epithelial cell integrity (TER deterioration) (Pig primary RPE cells; H2O2 + serum, dose response, FIG. 4): reduces transepithelial resistance (TER) deterioration in the presence of stress in a dose-dependent manner
O=C(O)c1ccc(/C2=C3\C=CC(=N3)/C(c3ccc(C(=O)O)cc3)=c3/cc/c4[n]3[Mn]([Cl])[n]3c2ccc3/C(c2ccc(C(=O)O)cc2)=C2/C=CC(=N2)\C=4c2ccc(C(=O)O)cc2)cc1 [MnTBAP, reference compound] |  |  |  |  |  | loss in TER caused by combined stressors (Pig primary RPE cells; pretreatment, low oxidative stress and complement activation): eliminated
C(=C\[C@H]1CCNC1)/c1cncnc1 [Compound E, (R)-5-((E)-2-pyrrolidin-3-ylvinyl)pyrimidine] | 25.718 | 17.682 | 33.750 | 24.861 |  | EC50 (Pig primary RPE cells; FIG. 4): ~200 nM; Mean Diff., Fisher's PLSD for 100 nM effect: treatment (Pig primary RPE cells; [5]): 39.927; Mean Diff., Fisher's PLSD for nicotine effect: treatment (Pig primary RPE cells; [5]): 34.222; Mean Diff., Fisher's PLSD for 100 nM effect: treatment (Pig primary RPE cells; [4]): 23.652; Mean Diff., Fisher's PLSD for nicotine effect: treatment (Pig primary RPE cells; [4]): 19.717
Cc1ccc(C(=O)N[C@@H]2C3CCN(CC3)[C@H]2Cc2cccnc2)s1 [Compound B, N-((2S,3R)-2-((pyridin-3-yl)methyl)-1-azabicyclo[2.2.2]oct-3-yl)-5-methylthiophene-2-carboxamide] |  |  |  |  | plateaued at or around the ED50 level | radiation-induced increase in ROS level [1]: blocked radiation-induced increase in ROS level; effect of compound on TER on its own (Pig primary RPE cells): reduced TER on their own
